Source: the SangsterLogP compilation

Row | logP | SMILES
1 | 2.01 | CONC(=O)[C@@H](C(C)C)N(Cc1cccnc1)S(=O)(=O)c1ccccc1Cl
2 | 1.92 | CC(C)[C@H](C(=O)NO)N(Cc1cccnc1)S(=O)(=O)c1cccc(Br)c1
3 | 1.65 | CC(C)[C@H](C(=O)NO)N(Cc1cccnc1)S(=O)(=O)c1ccccc1F
4 | 1.54 | CC(C)C(C(=O)NO)N(Cc1cccnc1)S(=O)(=O)c1ccccc1Br (configuration not stated)
5 | 2.67 | CONC(=O)[C@@H](C(C)C)N(Cc1cccnc1)S(=O)(=O)c1ccccc1F
6 | 1.45 | CC(C)[C@H](C(=O)NO)N(Cc1cccnc1)S(=O)(=O)c1ccccc1Cl
7 | 2.45 | CC(C)[C@H](C(=O)NO)N(Cc1cccnc1)S(=O)(=O)c1ccc(I)cc1
8 | 2.51 | CONC(=O)[C@@H](C(C)C)N(Cc1cccnc1)S(=O)(=O)c1ccc(Br)cc1
9 | 2.4 | CONC(=O)[C@@H](C(C)C)N(Cc1cccnc1)S(=O)(=O)c1ccc(Cl)cc1
10 | 2 | CONC(=O)[C@@H](C(C)C)N(Cc1cccnc1)S(=O)(=O)c1ccc(F)cc1
11 | 3.11 | CONC(=O)C(C(C)C)N(Cc1cccnc1)S(=O)(=O)c1ccc(I)cc1 (configuration not stated)
12 | 3.34 | CONC(=O)[C@@H](C(C)C)N(Cc1cccnc1)S(=O)(=O)c1ccccc1Br
13 | 1.91 | CC(C)C(C(=O)NO)N(Cc1cccnc1)S(=O)(=O)c1ccc(Br)cc1 (configuration not stated)
14 | 1.4 | CC(C)[C@H](C(=O)NO)N(Cc1cccnc1)S(=O)(=O)c1ccc(F)cc1
15 | 1.81 | CC(C)[C@H](C(=O)NO)N(Cc1cccnc1)S(=O)(=O)c1ccc(Cl)cc1
16 | 2.38 | CONC(=O)[C@@H](C(C)C)N(Cc1cccnc1)S(=O)(=O)c1cccc(Cl)c1
17 | 1.82 | CC(C)[C@H](C(=O)NO)N(Cc1cccnc1)S(=O)(=O)c1cccc(Cl)c1
